Columns and labels:
KARPAS-299 = test: Combination study, ATPLite 72 h, dose matrix (Synergy Score, CI50); settings: combination with Compound 1
OCI-Ly7 = test: as above; settings: combination with Compound 1, 72 h
Description: (§1) Cells are thawed from a liquid nitrogen preserved state. Once cells have been expanded and divide at their expected doubling times, screening begins. Cells are seeded in growth media in either black 1536-well or 384-well tissue culture treated plates. Cells are then equilibrated in assay plates via centrifugation and placed in incubators attached to the Dosing Modules at 37° C. for 24 hours before treatment. […] These Tzero (To) plates are read using ultra-sensitive luminescence on Envision plate readers (Perkin Elmer). Treated assay plates are incubated with compound for 72 hours. After 72 hours, plates are developed for endpoint analysis using ATPLite. All data points are collected via automated processes, quality controlled and analyzed using Zalicus software.
(§2) The measure of effect in the experiment can be the inhibition of cellular response relative to the untreated level (vehicle alone). […] The inhibition ranges from 0% at the untreated level to 100% when T=0. Inhibition levels are negative for agents that actually increase levels.
(§3) Growth Inhibition (GI) is used as a measure of cell viability. […] A GI reading of 100% represents complete growth inhibition—T72 compound-treated and T0 vehicle signals are matched. […] A GI reading of 200% represents complete death of all cells in the culture well. Compounds reaching an activity plateau of GI 200% are considered cytotoxic. GI is calculated by applying the following test and equation:
(§4) Combination analysis data were collected in a 6×6 dose matrix. Synergy is calculated by comparing a combination's response to those of its single compound, against the drug-with-itself dose-additive reference model. Deviations from dose additivity may be assessed visually on an isobologram or numerically with a Combination Index (CI). […] Additive effect is CI=1.0. […] Antagonistic effect is CI>1.0.
(§5) To measure combination effects in excess of Loewe additivity, a scalar measure to characterize the strength of synergistic interaction termed the Synergy Score is devised. The Synergy Score is calculated as:
(§6) The fractional inhibition for each component agent and combination point in the matrix is calculated relative to the median of all vehicle-treated control wells. The Synergy Score equation integrates the experimentally-observed activity volume at each point in the matrix in excess of a model surface numerically derived from the activity of the component agents using the Loewe model for additivity. Additional terms in the Synergy Score equation (above) are used to normalize for various dilution factors used for individual agents and to allow for comparison of synergy scores across an entire experiment. The inclusion of positive inhibition gating or an Idata multiplier removes noise near the zero effect level, and biases results for synergistic interactions at that occur at high activity levels.
(§7) Loewe Volume (Loewe Vol) is used to assess the overall magnitude of the combination interaction in excess of the Loewe additivity model. Loewe Volume is particularly useful when distinguishing synergistic increases in a phenotypic activity (positive Loewe Volume) versus synergistic antagonisms (negative Loewe Volume). […] This model defines additivity as a non-synergistic combination interaction where the combination dose matrix surface should be indistinguishable from either drug crossed with itself. The calculation for Loewe additivity is:

GRANTA-519 = test: as above; settings: combination with Compound 1
Farage = test: as above; settings: combination with Compound 1; Farage; 72 h
KARPAS-422 = test: as above; settings: combination with Compound 1, 72 h
Description: as §1
(§8) where T is treated cell count and V is untreated (vehicle) cell count (at 72 hours). I ranges from 0% (when T=V) to 100% (when T=0). […] The measure of effect in the experiment can be the inhibition of cellular response relative to the untreated level (vehicle alone). […] The inhibition ranges from 0% at the untreated level to 100% when T=0. Inhibition levels are negative for agents that actually increase levels. Other effect measures, such as an activity ratio r=T/V may be more appropriate for some assays. When activity ratios (e.g, fold increase over stimulated control) are being used, the effect can be measured using an induction 1=ln(T/V). With this definition, all effect expressions are the same as for inhibition.
as §3, §4, §5, §6
(§9) Loewe Volume (Loewe Vol) is used to assess the overall magnitude of the combination interaction in excess of the Loewe additivity model. Loewe Volume is particularly useful when distinguishing synergistic increases in a phenotypic activity (positive Loewe Volume) versus synergistic antagonisms (negative Loewe Volume). […] This model defines additivity as a non-synergistic combination interaction where the combination dose matrix surface should be indistinguishable from either drug crossed with itself.

DOHH-2 = test: as above; settings: combination with Compound 1, 72 h
SU-DHL-10-epst = test: as above; settings: combination with Compound 1, 72 h
Description: as §1, §2, §3, §4, §5, §6, §7

RPMI-8226 = test: as above; settings: combination with Compound 1
HH = test: as above; assay type: cell-based; settings: combination with Compound 1
Description: The method is described as follows.
Additive effect is CI=1.0. […] Antagonistic effect is CI>1.0.
The Synergy Score is calculated as: […]

WSU-NHL = test: as above; settings: combination with Compound 1, 72 h
Description: as §1, §8, §3, §4, §5, §6, §9

SU-DHL-4-epst = test: as above; settings: combination with Compound 1, 72 h
OMP-2 = test: as above; settings: combination with Compound 1; OPM-2
Description: as §1, §8, §3, §4, §5, §6, §9

[1] = as above; settings: combination with Compound 1; OPM-2
Description: as §1, §8, §3, §4, §5, §6, §9

Mino = test: as above; settings: combination with Compound 1
TMD8 = test: as above; settings: combination with Compound 1; TMD8; 72 h
Description: as §1, §8, §3, §4
The isobologram was drawn by identifying the locus of concentrations that correspond to crossing the indicated inhibition level. This is done by finding the crossing point for each single agent concentration in a dose matrix across the concentrations of the other single agent. Practically, each vertical concentration CY is held fixed while a bisection algorithm is used to identify the horizontal concentration CX in combination with that vertical dose that gives the chosen effect level in the response surface Z(CX,CY). These concentrations are then connected by linear interpolation to generate the isobologram display. For synergistic interactions, the isobologram contour fall below the additivity threshold and approaches the origin, and an antagonistic interaction would lie above the additivity threshold. The error bars represent the uncertainty arising from the individual data points used to generate the isobologram. The uncertainty for each crossing point is estimated from the response errors using bisection to find the concentrations where Z−αZ(CX,CY) and Z+σZ(CX,CY) cross Icut, where αZ is the standard deviation of the residual error on the effect scale.
as §5
The fractional inhibition for each component agent and combination point in the matrix is calculated relative to the median of all vehicle-treated control wells.

NCI-H929 = test: as above; settings: combination with Compound 1
OCI-Ly3 = test: as above; settings: combination with Compound 1; OCI-Ly3; 72 h
Description: as §1, §8, §3, §4, §5, §6, §7

U-2932 = test: as above; settings: combination with Compound 1, 72 h
RL = test: as above; settings: combination with Compound 1, 72 h
Description: as §1, §8, §3, §4, §5, §6, §9

Jeko-1 = test: as above; settings: combination with Compound 1
Description: as §1, §8, §3, §4, §5, §6, §9

HBL-1 = test: as above; settings: combination with Compound 1, 72 h
Description: as §1, §8, §3, §4, §5, §6, §7

[2] = system: CDK1, CDK2, CDK4, CDK7 and CDK9; settings: in words; cited from earlier work

For `CN1CCc2c(c3ccccc3n2Cc2ccc(C(=O)NO)cc2)C1.Cl` [Tubastatin A hydrochloride], the “Synergy Score growth inhibition” value (KARPAS-299) was “A1 (A1=0.0001 to <1)”, the “Synergy Score inhibition” value (KARPAS-299) was “A1 (A1=0.0001 to <1)” and the CI50 growth inhibition (OCI-Ly7) was “S (S=0.01 to <0.5)”. The CI50 inhibition (OCI-Ly7) was “U (U=0.7 to <1)”, the “Synergy Score growth inhibition” value (OCI-Ly7) was “A3 (A3=>3)” and the “Synergy Score inhibition” value (OCI-Ly7) was “A2 (A2=1 to <3)”. For the same molecule, the CI50 growth inhibition (GRANTA-519) was “S (S=0.01 to <0.5)”, the CI50 inhibition (GRANTA-519) was “W (W=≥1)” and the “Synergy Score growth inhibition” value (GRANTA-519) was “A2 (A2=1 to <3)”. For the same molecule, the “Synergy Score inhibition” value (GRANTA-519) was “A1 (A1=0.0001 to <1)”, the CI50 growth inhibition (Farage) was “S (S=0.01 to <0.5)” and the CI50 inhibition (Farage) was “T (T=0.5 to <0.7)”. The “Synergy Score growth inhibition” value (Farage) was “A3 (A3=>3)”, the “Synergy Score inhibition” value (Farage) was “A2 (A2=1 to <3)” and the “Synergy Score growth inhibition” value (KARPAS-422) was “A1 (A1=0.0001 to <1)”. For the same molecule, the “Synergy Score inhibition” value (KARPAS-422) was “A1 (A1=0.0001 to <1)”, the CI50 growth inhibition (DOHH-2) was “T (T=0.5 to <0.7)” and the CI50 inhibition (DOHH-2) was “T (T=0.5 to <0.7)”. The “Synergy Score growth inhibition” value (DOHH-2) was “A3 (A3=>3)”, the “Synergy Score inhibition” value (DOHH-2) was “A2 (A2=1 to <3)” and the CI50 growth inhibition (SU-DHL-10-epst) was “T (T=0.5 to <0.7)”. For the same molecule, the CI50 inhibition (SU-DHL-10-epst) was “T (T=0.5 to <0.7)”, the “Synergy Score growth inhibition” value (SU-DHL-10-epst) was “A3 (A3=>3)” and the “Synergy Score inhibition” value (SU-DHL-10-epst) was “A2 (A2=1 to <3)”. The CI50 growth inhibition (RPMI-8226) was “U (U=0.7 to <1)”, the CI50 inhibition (RPMI-8226) was “U (U=0.7 to <1)” and the “Synergy Score growth inhibition” value (RPMI-8226) was “A2 (A2=1 to <3)”. The “Synergy Score inhibition” value (RPMI-8226) was “A1 (A1=0.0001 to <1)”, the CI50 growth inhibition (HH) was “S (S=0.01 to <0.5)” and the CI50 inhibition (HH) was “T (T=0.5 to <0.7)”. For the same molecule, the “Synergy Score growth inhibition” value (HH) was “A3 (A3=>3)”, the “Synergy Score inhibition” value (HH) was “A2 (A2=1 to <3)” and the CI50 growth inhibition (WSU-NHL) was “T (T=0.5 to <0.7)”. For the same molecule, the CI50 inhibition (WSU-NHL) was “T (T=0.5 to <0.7)”, the “Synergy Score growth inhibition” value (WSU-NHL) was “A3 (A3=>3)” and the “Synergy Score inhibition” value (WSU-NHL) was “A2 (A2=1 to <3)”. For the same molecule, the CI50 growth inhibition (SU-DHL-4-epst) was “T (T=0.5 to <0.7)”, the CI50 inhibition (SU-DHL-4-epst) was “S (S=0.01 to <0.5)” and the “Synergy Score growth inhibition” value (SU-DHL-4-epst) was “A3 (A3=>3)”. For the same molecule, the “Synergy Score inhibition” value (SU-DHL-4-epst) was “A2 (A2=1 to <3)”, the “Synergy Score growth inhibition” value (OMP-2) was “A1 (A1=0.0001 to <1)” and the “Synergy Score inhibition” value (OMP-2) was “A1 (A1=0.0001 to <1)”. The CI50 growth inhibition [1] was “W (W=≥1)”, the CI50 growth inhibition (Mino) was “U (U=0.7 to <1)” and the CI50 inhibition (Mino) was “U (U=0.7 to <1)”. The “Synergy Score growth inhibition” value (Mino) was “A2 (A2=1 to <3)”, the “Synergy Score inhibition” value (Mino) was “A1 (A1=0.0001 to <1)” and the CI50 growth inhibition (TMD8) was “U (U=0.7 to <1)”. For the same molecule, the CI50 inhibition (TMD8) was “U (U=0.7 to <1)”, the “Synergy Score growth inhibition” value (TMD8) was “A3 (A3=>3)” and the “Synergy Score inhibition” value (TMD8) was “A2 (A2=1 to <3)”. For the same molecule, the CI50 growth inhibition (NCI-H929) was “U (U=0.7 to <1)”, the CI50 inhibition (NCI-H929) was “T (T=0.5 to <0.7)” and the “Synergy Score growth inhibition” value (NCI-H929) was “A3 (A3=>3)”. The “Synergy Score inhibition” value (NCI-H929) was “A2 (A2=1 to <3)”, the CI50 growth inhibition (OCI-Ly3) was “U (U=0.7 to <1)” and the CI50 inhibition (OCI-Ly3) was “W (W=≥1)”. For the same molecule, the “Synergy Score growth inhibition” value (OCI-Ly3) was “A2 (A2=1 to <3)”, the “Synergy Score inhibition” value (OCI-Ly3) was “A1 (A1=0.0001 to <1)” and the CI50 growth inhibition (U-2932) was “U (U=0.7 to <1)”. For the same molecule, the “Synergy Score growth inhibition” value (U-2932) was “A1 (A1=0.0001 to <1)”, the “Synergy Score inhibition” value (U-2932) was “A1 (A1=0.0001 to <1)” and the CI50 growth inhibition (RL) was “W (W=≥1)”. The CI50 inhibition (RL) was “W (W=≥1)”, the “Synergy Score growth inhibition” value (RL) was “A2 (A2=1 to <3)” and the “Synergy Score inhibition” value (RL) was “A2 (A2=1 to <3)”. The CI50 growth inhibition (Jeko-1) was “W (W=≥1)”, the CI50 inhibition (Jeko-1) was “W (W=≥1)” and the “Synergy Score growth inhibition” value (Jeko-1) was “A1 (A1=0.0001 to <1)”. For the same molecule, the “Synergy Score inhibition” value (Jeko-1) was “A1 (A1=0.0001 to <1)”, the CI50 growth inhibition (HBL-1) was “U (U=0.7 to <1)” and the CI50 inhibition (HBL-1) was “W (W=≥1)”. The “Synergy Score growth inhibition” value (HBL-1) was “A2 (A2=1 to <3)” and the “Synergy Score inhibition” value (HBL-1) was “A1 (A1=0.0001 to <1)”.

For `CC1(C)/C(=C2/C(=O)Nc3ccc(S(N)(=O)=O)cc32)Nc2ccccc21` [ZK-304709, (Z)-3,3-dimethyl-2′-oxo-[2,3′-biindolinylidene]-5′-sulfonamide], the “IC50 values, CDK1, CDK2, CDK4, CDK7 and CDK9” value [2] is listed as “nanomolar range”.

Source: patent US20240325398A1, “COMBINATION THERAPIES” (Infinity Pharmaceuticals, Inc., priority 2014, published 2024)
